Test results published in US20230132366A9, “METHODS FOR TREATING DYSREGULATED LIPID METABOLISM” (DENALI THERAPEUTICS INC., priority 2018, published 2023).

System: Trem2 KO BMDMs
Test: In vitro lipid storage assay, Nile Red staining, BMDM treated with myelin
Format: cell-based, mouse
Method: Mouse femur and tibia bones were dissected and briefly sterilized with 70% ethanol. The bones were washed twice with HBSS, then cracked in 10 mL HBSS by mortar and pestle. The cell suspension was filtered through a 70 μm cell strainer, spun at 300×g for 5 min, and supernatant was discarded. The cell pellet was resuspended in ACK Lysing Buffer (Thermo Fisher A1049201) for 4 min at room temperature. 10 mL RPMI-1640 (Thermo Fisher)+10% Hyclone FBS (GE Healthcare)+ Penicillin-Streptomycin (Thermo Fisher) was added to stop ACK lysis, then spun 300×g 5 min, and supernatant was discarded. Cells were resuspended in RPMI culture media with 50 ng/mL murine M-CSF (Life Technologies, PMC2044), counted and diluted to 1×10^6 cells/mL, then plated on non-tissue culture treated petri dishes. Three days after seeding, fresh murine M-CSF (50 ng/mL) was added. Five days after seeding, cell culture media was aspirated and cells were washed once with PBS. Cells were resuspended in RPMI/FBS/Pen-Strep and harvested with a cell scraper. […]
For LC-MS, cells were extracted according to the protocol below. […] Lipid and filipin spots were analyzed using a spot-finding algorithm on the Harmony software supplied with the instrument. […] Cells were imaged at 63× resolution and Nile Red was quantified as total spot area (FIG. 5B) using a spot-finding algorithm on the Harmony software. […]

Row | Compound | neutral lipid accumulation (Nile Red) (myelin debris 25 ug/mL 48 h, co-treatment 10 uM) | neutral lipid accumulation (Nile Red, total spot area) (myelin 25 ug/mL 24 h, then APOE3 10 ug/mL 24 h)
1 | C=C(c1ccc(C(=O)O)cc1)c1cc2c(cc1C)C(C)(C)CCC2(C)C [bexarotene] | reduced | 
2 | APOE3: recombinant human APOE3 added into the culture media |  | improved
